In patent US20180194762A1 (Pharmacyclics LLC, priority 2017, published 2018) one finds IC50 and TEC/Btk data, which are given here for 15 compounds.

What all share (format): biochemical
The target in one assay is T1, panel of kinases (Homo sapiens, UniProt P51813).
T1 sequence (P51813 1-675): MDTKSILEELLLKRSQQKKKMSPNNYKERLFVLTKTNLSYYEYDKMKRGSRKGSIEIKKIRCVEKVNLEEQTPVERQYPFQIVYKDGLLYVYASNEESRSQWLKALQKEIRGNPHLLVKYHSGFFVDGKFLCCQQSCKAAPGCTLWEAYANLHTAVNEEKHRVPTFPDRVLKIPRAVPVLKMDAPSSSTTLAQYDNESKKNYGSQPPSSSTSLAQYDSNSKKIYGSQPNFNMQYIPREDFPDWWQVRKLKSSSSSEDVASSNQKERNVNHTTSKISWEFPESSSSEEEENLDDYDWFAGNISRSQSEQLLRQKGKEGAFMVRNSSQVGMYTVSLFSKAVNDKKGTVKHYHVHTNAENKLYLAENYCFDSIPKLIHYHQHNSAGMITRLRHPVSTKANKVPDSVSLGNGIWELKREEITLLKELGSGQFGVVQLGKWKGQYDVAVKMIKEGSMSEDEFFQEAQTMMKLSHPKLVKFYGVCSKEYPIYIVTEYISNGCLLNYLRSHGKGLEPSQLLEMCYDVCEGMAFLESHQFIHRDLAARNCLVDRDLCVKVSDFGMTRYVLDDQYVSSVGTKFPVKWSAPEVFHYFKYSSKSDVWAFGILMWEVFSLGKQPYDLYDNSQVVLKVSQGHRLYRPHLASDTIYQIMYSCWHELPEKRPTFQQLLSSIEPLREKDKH
Put plainly: Inhibition of a panel of kinases (in vitro HotSpot kinase assay, 33P-ATP, 1 μM ATP), other kinases. The following applies: BMX wild-type, read-out: BMX-WT IC50. The method in brief: (§1)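 Radiometric read-out: 33P transfer to a suitable substrate by each purified enzyme, ATP at 1 μM. Values are degree of inhibition.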

A further assay has as its target T2, Btk (Homo sapiens, UniProt Q06187).
T2 construct: purified from insect cells as a full-length construct containing a N-terminal 6X-His tag; His6 (N); made in house; host or cells: insect cells (Method C)
Put plainly: Btk in vitro inhibitory activity (one of Method A TR-FRET, Method B electrophoretic mobility shift, Method C radiometric filter binding). The method in brief:
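Three alternative formats were used. A radiometric filter-binding read used 8 nM full-length His-BTK with 0.2 mg/mL poly(Glu-Tyr) 4:1 (C); microfluidic separation of 1 μM FAM-peptide by 1 nM BTK gave IC50 from 12-point curves (B); TR-FRET at Km ATP, 0.5 nM Btk, gave Ki(app)-derived IC50 (A).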
A general note: A gel shift assay detects complexes by their altered migration in electrophoresis.

A further assay deals with T3, TEC (Homo sapiens, UniProt P42680).
T3 sequence (P42680 1-631): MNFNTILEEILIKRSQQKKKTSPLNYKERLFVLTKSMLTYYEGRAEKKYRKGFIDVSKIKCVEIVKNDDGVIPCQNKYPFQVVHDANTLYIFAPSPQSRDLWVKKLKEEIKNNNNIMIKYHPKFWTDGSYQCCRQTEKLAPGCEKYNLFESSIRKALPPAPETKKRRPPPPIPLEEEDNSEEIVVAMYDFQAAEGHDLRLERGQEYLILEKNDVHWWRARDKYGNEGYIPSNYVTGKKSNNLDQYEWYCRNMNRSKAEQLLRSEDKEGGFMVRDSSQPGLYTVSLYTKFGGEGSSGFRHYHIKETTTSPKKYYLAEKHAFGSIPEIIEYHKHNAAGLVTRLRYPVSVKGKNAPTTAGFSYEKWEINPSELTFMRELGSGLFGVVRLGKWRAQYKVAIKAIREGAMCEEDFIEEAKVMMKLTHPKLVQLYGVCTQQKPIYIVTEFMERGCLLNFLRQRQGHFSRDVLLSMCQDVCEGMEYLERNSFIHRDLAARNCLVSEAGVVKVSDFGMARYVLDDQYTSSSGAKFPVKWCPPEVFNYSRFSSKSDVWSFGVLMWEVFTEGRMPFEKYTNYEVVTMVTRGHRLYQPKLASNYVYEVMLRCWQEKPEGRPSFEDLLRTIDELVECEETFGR
As to the kind of experiment: Inhibition of a panel of kinases (in vitro HotSpot kinase assay, 33P-ATP, 1 μM ATP). The following applies: for IC50: HotSpot kinase assay, 1 μM ATP; for TEC/Btk: ratio of TEC IC50 to Btk IC50 (selectivity). Summed up:
as §1

Where [1] appears, read: method is one of A, B or C, not stated which, read-out: IC50 values against Btk.
[2] abbreviates: wild-type Btk, read-out: Btk-WT IC50.

The structures appear in SMILES notation. Like-named read-outs stand apart in the source and are kept apart here.

T2 sequence (Q06187 whole entry): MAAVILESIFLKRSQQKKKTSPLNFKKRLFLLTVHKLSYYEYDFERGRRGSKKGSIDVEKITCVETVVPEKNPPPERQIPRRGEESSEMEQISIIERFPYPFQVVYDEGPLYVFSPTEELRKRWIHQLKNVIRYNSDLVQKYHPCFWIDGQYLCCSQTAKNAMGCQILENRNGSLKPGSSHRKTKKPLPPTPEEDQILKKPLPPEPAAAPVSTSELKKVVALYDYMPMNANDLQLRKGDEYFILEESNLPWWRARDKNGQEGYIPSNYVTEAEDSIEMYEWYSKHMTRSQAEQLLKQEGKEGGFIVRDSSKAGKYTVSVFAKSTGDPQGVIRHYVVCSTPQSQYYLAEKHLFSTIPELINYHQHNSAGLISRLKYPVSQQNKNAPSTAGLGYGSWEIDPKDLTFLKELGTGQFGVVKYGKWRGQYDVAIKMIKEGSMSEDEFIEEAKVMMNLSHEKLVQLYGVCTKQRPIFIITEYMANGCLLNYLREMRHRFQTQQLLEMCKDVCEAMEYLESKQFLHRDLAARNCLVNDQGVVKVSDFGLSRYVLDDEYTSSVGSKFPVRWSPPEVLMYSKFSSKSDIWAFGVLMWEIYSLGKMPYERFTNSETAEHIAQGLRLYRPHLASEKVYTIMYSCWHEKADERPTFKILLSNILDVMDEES

On to `CC(C)(C)c1noc(C(=O)NCc2ccc(-c3ccnc4[nH]nc(N[C@@H]5CCNC5)c34)cc2F)n1` [Example 79, 3-tert-butyl-N-{[2-fluoro-4-(3-{[(3R)-pyrrolidin-3-yl]amino}-1H-pyrazolo[3,4-b]pyridin-4-yl)phenyl]methyl}-1,2,4-oxadiazole-5-carboxamide], for which the IC50 on panel of kinases was 1790 nM; on Btk (setting [1]) it was less than 10 nM; at Btk (setting [2]), 6.27 nM; against TEC it was 1730 nM. Further, the TEC/Btk at TEC stood at 276.
On to `C[C@H]1CC[C@@H](Nc2n[nH]c3nccc(-c4ccc(CNC(=O)c5noc(C(C)(C)C)n5)c(F)c4)c23)CN1C=O` [Example 68, 5-tert-butyl-N-{[2-fluoro-4-(3-{[(3R,6S)-1-formyl-6-methylpiperidin-3-yl]amino}-1H-pyrazolo[3,4-b]pyridin-4-yl)phenyl]methyl}-1,2,4-oxadiazole-3-carboxamide], for which the IC50 was 541 nM at panel of kinases, less than 10 nM on Btk (setting [1]), 0.601 nM on Btk (setting [2]) and 258 nM against TEC. In addition, the TEC/Btk at TEC was found to be 429.
On to `CCC(=O)N1CC[C@@H](Nc2n[nH]c3nccc(-c4ccc(C5(NC(=O)c6noc(C(C)(C)C)n6)CC5)cc4)c23)C1` [Compound 5, (R)-5-(tert-butyl)-N-(1-(4-(3-((1-propionylpyrrolidin-3-yl)amino)-1H-pyrazolo[3,4-b]pyridin-4-yl)phenyl)cyclopropyl)-1,2,4-oxadiazole-3-carboxamide], for which the 50% inhibitory concentration (IC50) amounted to 4350 nM at panel of kinases, 52.7 nM on Btk (setting [2]) and 2590 nM against TEC. Further, the TEC/Btk on TEC is listed as 49.
With `C=CC(=O)N1CC[C@@H](Nc2n[nH]c3nccc(-c4ccc(CNC(=O)c5cn6c(C)cccc6n5)c(F)c4)c23)C1` [Example 390, N-{[2-fluoro-4-(3-{[(3R)-1-(prop-2-enoyl)pyrrolidin-3-yl]amino}-1H-pyrazolo[3,4-b]pyridin-4-yl)phenyl]methyl}-5-methylimidazo[1,2-a]pyridine-2-carboxamide], the IC50 at panel of kinases turned out to be 162 nM; at Btk (setting [2]), 38.1 nM; on TEC, 713 nM.
On the same counts, the results for `C=CC(=O)N1CCC[C@@H](Nc2n[nH]c3nccc(-c4ccc(CNC(=O)c5cc(CC)on5)c(F)c4)c23)[C@H]1C` [Example 304, 5-ethyl-N-{[2-fluoro-4-(3-{[(2R,3R)-2-methyl-1-(prop-2-enoyl)piperidin-3-yl]amino}-1H-pyrazolo[3,4-b]pyridin-4-yl)phenyl]methyl}-1,2-oxazole-3-carboxamide] are 4.59 nM, 0.908 nM and 15.9 nM.
Take `CN(C)C(=O)N1CC[C@@H](Nc2n[nH]c3nccc(-c4ccc(CNC(=O)c5cnn(C(C)(C)C)c5)c(F)c4)c23)C1` [Example 119, 1-tert-butyl-N-{[4-(3-{[(3R)-1-(dimethylcarbamoyl)pyrrolidin-3-yl]amino}-1H-pyrazolo[3,4-b]pyridin-4-yl)-2-fluorophenyl]methyl}-1H-pyrazole-4-carboxamide]: the IC50 on panel of kinases was determined as 6530 nM; on Btk (setting [2]), 49 nM; on TEC it was 8590 nM. The TEC/Btk at TEC worked out at 175.
As to `C[C@H]1CC[C@@H](Nc2n[nH]c3nccc(-c4ccc(CNC(=O)c5noc(C(C)(C)C)n5)c(F)c4)c23)CN1C(=O)CC#N` [Example 140, 5-tert-butyl-N-{[4-(3-{[(3R,6S)-1-(2-cyanoacetyl)-6-methylpiperidin-3-yl]amino}-1H-pyrazolo[3,4-b]pyridin-4-yl)-2-fluorophenyl]methyl}-1,2,4-oxadiazole-3-carboxamide], the IC50 at panel of kinases is 1770 nM; on Btk (setting [1]) it was less than 10 nM; at Btk (setting [2]), 2.65 nM; at TEC, 855 nM. Further, on TEC, the TEC/Btk is on record as 323.
Consider `CC(=O)N[C@@H]1CCN(c2n[nH]c3nccc(-c4ccc(CNC(=O)c5nc6c(s5)CCCC6)c(F)c4)c23)C1` [Example 356, N-[(4-{3-[(3R)-3-acetamidopyrrolidin-1-yl]-1H-pyrazolo[3,4-b]pyridin-4-yl}-2-fluorophenyl)methyl]-4,5,6,7-tetrahydro-1,3-benzothiazole-2-carboxamide], for which the IC50 was 2050 nM at panel of kinases, 11.8 nM at Btk (setting [2]) and 5380 nM at TEC.
For the compound `C=CC(=O)N[C@@H]1CCN(c2n[nH]c3nccc(-c4ccc(CNC(=O)c5cc(C(C)C)no5)c(F)c4)c23)C1` [Example 184, N-{[2-fluoro-4-(3-{(3R)-3-[(prop-2-enoyl)amino]pyrrolidin-1-yl}-1H-pyrazolo[3,4-b]pyridin-4-yl)phenyl]methyl}-3-(propan-2-yl)-1,2-oxazole-5-carboxamide], the half-inhibitory concentration (IC50) on panel of kinases is 30.7 nM; at Btk (setting [2]), 0.0776 nM; against TEC it was 33.4 nM. Further, the TEC/Btk at TEC came out at 430.
In the case of `CC(C)(C)c1nc(C(=O)NCc2ccc(-c3ccnc4[nH]nc(N5CC[C@@H](N)C5)c34)cc2F)no1` [Example 108, N-[(4-{3-[(3R)-3-aminopyrrolidin-1-yl]-1H-pyrazolo[3,4-b]pyridin-4-yl}-2-fluorophenyl)methyl]-5-tert-butyl-1,2,4-oxadiazole-3-carboxamide], the IC50 was 1730 nM on panel of kinases, less than 10 nM at Btk (setting [1]), 1.77 nM at Btk (setting [2]) and 1650 nM against TEC.
Regarding `C=CC(=O)N[C@@H]1CCN(c2n[nH]c3nccc(-c4ccc([C@@H](C)NC(=O)c5cc(C(C)(C)O)on5)c(F)c4)c23)C1` [Example 353, N-{(1R)-1-[2-fluoro-4-(3-{(3R)-3-[(prop-2-enoyl)amino]pyrrolidin-1-yl}-1H-pyrazolo[3,4-b]pyridin-4-yl)phenyl]ethyl}-5-(2-hydroxypropan-2-yl)-1,2-oxazole-3-carboxamide], the IC50 at panel of kinases was 35 nM; at Btk (setting [2]), 0.244 nM; against TEC, 67.8 nM.
In the same order, the values of `CC(C)(C)c1nc(NC(=O)Cc2ccc(-c3ccnc4[nH]nc(N[C@@H]5CCNC5)c34)cc2F)no1` [Example 123, N-(5-tert-butyl-1,2,4-oxadiazol-3-yl)-2-[2-fluoro-4-(3-{[(3R)-pyrrolidin-3-yl]amino}-1H-pyrazolo[3,4-b]pyridin-4-yl)phenyl]acetamide] are more than 10000 nM, more than 10000 nM and more than 10000 nM.
Take `CC(=O)N1CC[C@H](Nc2n[nH]c3nccc(-c4ccc(CNC(=O)c5noc(C(C)(C)C)n5)c(F)c4)c23)C1` [Example 92, N-{[4-(3-{[(3S)-1-acetylpyrrolidin-3-yl]amino}-1H-pyrazolo[3,4-b]pyridin-4-yl)-2-fluorophenyl]methyl}-5-tert-butyl-1,2,4-oxadiazole-3-carboxamide]: the IC50 came to 7600 nM on panel of kinases, 13.7 nM on Btk (setting [2]) and 6920 nM on TEC. The TEC/Btk on TEC turned out to be 505.
As to `C=CC(=O)N1CC[C@@H](Nc2n[nH]c3nccc(-c4ccc(NC(=O)c5ccc(C(C)(C)C)cc5)c(F)c4)c23)C1` [Compound 45], the values for the IC50 on panel of kinases, on Btk (setting [2]) and against TEC were 449 nM, more than 10000 nM and 1920 nM, respectively. For the same compound, at TEC, the TEC/Btk is listed as more than 100.
In the same order, the values of `CC(C)c1noc(C(=O)NCc2ccc(-c3ccnc4[nH]nc(N5CC[C@@H](N)C5)c34)cc2F)n1` [Example 181, N-[(4-{3-[(3R)-3-aminopyrrolidin-1-yl]-1H-pyrazolo[3,4-b]pyridin-4-yl}-2-fluorophenyl)methyl]-3-(propan-2-yl)-1,2,4-oxadiazole-5-carboxamide] are 761 nM, 6.04 nM, 1000 nM and 166.

As usually defined, the IC50 is the point on the concentration scale where inhibition reaches its midpoint.
